Source: patent publication US20230241030A1, “MACROGOL 15 HYDROXYSTEARATE FORMULATIONS” (Allergan, Inc., priority 2011, published 2023)
Values after ≈ are worked out from the molar mass of the structure shown. Like-named read-outs stand apart in the source and are kept apart here. Blank lines part the entries; values can stand above or below the compound they belong to.

Columns and labels:
Type in all cases: physicochemical
[1] = Stability of Cmpd 1 in formulations, impurities by percent area LC; settings: macrogol 15 hydroxystearate vs PS80 formulation of Table 3; 25° C. and 40° C. storage; FIGS. 2A-D
Procedure: FIGS. 2A-D: Stability results for Cmpd 1 in formulations containing either polysorbate 80 (PS80) or macrogol 15 hydroxystearate (Sol-2) as solubilizer as shown in Table 3. See Examples. […] Impurity amounts were calculated by percent area by liquid chromatography (LC). FIG. 2A: 25° C. storage, total impurities. FIG. 2B: 25° C. storage, major degradation product. FIG. 2C: 40° C. storage, total impurities. FIG. 2D: 40° C. storage, major degradation product. Legend: as in FIG. 1.

[2] = Solubility in formulation vehicles with different solubilizers; settings: for Solubility in vehicle containing Solutol 15 HS compared to polyoxyethylated surfactants: comparison in words; for solubility at 8 weeks: read-out: Solubility (mg/ml) measured after 8 weeks
Text: Table 1 summarizes solubility of Cmpd 1 in vehicles with 4 different solubilizers over a range of temperatures.

[3] = Stability of Cmpd 2 in formulations, percent remaining by LC
Procedure: FIG. 1. See Examples. Samples were stored at 25° C. Axes: x-axis (time, months); y-axis (stability of Cmpd 2 as measured by percent remaining by liquid chromatography, LC). Legend: macrogol 15 hydroxystearate (box); polysorbate 80 (diamond).
See Examples. […] Axes: x-axis (time, months); y-axis (stability of Cmpd 2 as measured by percent remaining by liquid chromatography, LC). Legend Formulation PSI, storage 40° C./20% RH, % remaining by LC (Diamond); Formulation Sol1, storage 40° C./20% RH, % remaining by LC (Square); Formulation PSI, storage 25° C./40% RH, % remaining by LC (Triangle); Formulation Sol1, storage 25° C./40% RH, % remaining by LC (cross); Formulation PSI, storage 5° C., % remaining by LC (Asterix); Formulation Sol1, storage 5° C., % remaining by LC (circle).
Axes: x-axis (time, months); y-axis (stability of Cmpd 2 as measured by percent remaining by liquid chromatography, LC). Legend Formulation #2, storage 5°, % remaining by LC (Diamond); Formulation #2, storage 25° C./40% RH, % remaining by LC (Square); Formulation #2, storage 30° C./60% RH, % remaining by LC (Triangle); Formulation #5, storage 5° C., % remaining by LC (cross); Formulation #5, storage 25° C./40% RH, % remaining by LC (Asterix); Formulation #5, storage 30° C./60% RH, % remaining by LC (circle).

[4] = Cmpd 4 solubility in Solutol HS 15 vehicles

solubility at 8 weeks ([2]; formulation vehicle with 1% POE 40 Stearate, aqueous with cosolvent or surfactant or cyclodextrin, vehicle with 1% POE 40 Stearate, 5 °C): 1.27 mg/mL (≈ 2680 µM)
solubility at 8 weeks ([2]; formulation vehicle with 1% POE 40 Stearate, aqueous with cosolvent or surfactant or cyclodextrin, vehicle with 1% POE 40 Stearate, 25 °C): 1.21 mg/mL (≈ 2560 µM)
solubility at 8 weeks ([2]; formulation vehicle with 1% POE 40 Stearate, aqueous with cosolvent or surfactant or cyclodextrin, vehicle with 1% POE 40 Stearate, 40 °C): 1.15 mg/mL (≈ 2430 µM)
solubility at 8 weeks ([2]; formulation vehicle with 1% Polysorbate 20, aqueous with cosolvent or surfactant or cyclodextrin, vehicle with 1% Polysorbate 20, 5 °C): 1.24 mg/mL (≈ 2620 µM)
solubility at 8 weeks ([2]; formulation vehicle with 1% Polysorbate 20, aqueous with cosolvent or surfactant or cyclodextrin, vehicle with 1% Polysorbate 20, 25 °C): 1.18 mg/mL (≈ 2490 µM)
solubility at 8 weeks ([2]; formulation vehicle with 1% Polysorbate 20, aqueous with cosolvent or surfactant or cyclodextrin, vehicle with 1% Polysorbate 20, 40 °C): 1.05 mg/mL (≈ 2220 µM)
solubility at 8 weeks ([2]; formulation vehicle with 1% Polysorbate 80, aqueous with cosolvent or surfactant or cyclodextrin, vehicle with 1% Polysorbate 80, 5 °C): 1.68 mg/mL (≈ 3540 µM)
solubility at 8 weeks ([2]; formulation vehicle with 1% Polysorbate 80, aqueous with cosolvent or surfactant or cyclodextrin, vehicle with 1% Polysorbate 80, 25 °C): 1.52 mg/mL (≈ 3220 µM)
solubility at 8 weeks ([2]; formulation vehicle with 1% Polysorbate 80, aqueous with cosolvent or surfactant or cyclodextrin, vehicle with 1% Polysorbate 80, 40 °C): 1.46 mg/mL (≈ 3080 µM)
solubility at 8 weeks ([2]; formulation vehicle with 1% Solutol HS 15, aqueous with cosolvent or surfactant or cyclodextrin, vehicle with 1% Solutol HS 15, 5 °C): 1.5 mg/mL (≈ 3170 µM)
solubility at 8 weeks ([2]; formulation vehicle with 1% Solutol HS 15, aqueous with cosolvent or surfactant or cyclodextrin, vehicle with 1% Solutol HS 15, 25 °C): 1.32 mg/mL (≈ 2790 µM)
solubility at 8 weeks ([2]; formulation vehicle with 1% Solutol HS 15, aqueous with cosolvent or surfactant or cyclodextrin, vehicle with 1% Solutol HS 15, 40 °C): 1.24 mg/mL (≈ 2610 µM)
SMILES: CCCCC[C@H](O)c1ccc(N2C(=O)CC[C@@H]2COCc2ccc(C(=O)OC(C)C)s2)cc1 [Cmpd 1, isopropyl 5-((((R)-1-(4-((S)-1-hydroxyhexyl)phenyl)-5-oxopyrrolidin-2-yl)methoxy)methyl)thiophene-2-carboxylate]
Oxidative degradation (total impurities, major degradation product) [1]: prevent oxidative degradation seen in PS80 containing formulations
Solubility in vehicle containing Solutol 15 HS compared to polyoxyethylated surfactants [2]: higher than that containing POE40 stearate or polysorbate 20, but slightly lower than that containing Polysorbate 80

SMILES: CCCCC[C@H](O)c1ccc(N2C(=O)CC[C@@H]2CCCc2ccc(C(=O)OC(C)C)s2)cc1 [Cmpd 2, isopropyl 5-(3-((S)-1-(4-((S)-1-hydroxyhexyl)phenyl)-5-oxopyrrolidin-2-yl)propyl)thiophene-2-carboxylate]
Solubility in vehicle containing Solutol 15 HS compared to polyoxyethylated surfactants [2]: comparable or better solubility
Degradation (percent remaining by LC) ([3]; macrogol 15 hydroxystearate (#2) vs PS80 (#5) formulation of Table 8, 5° C., 25° C./40% RH, 30° C./60% RH, FIG. 4): prevent degradation seen in PS80 containing formulations at all storage conditions
Degradation (percent remaining by LC) ([3]; macrogol 15 hydroxystearate vs PS80 formulation of Table 7, 40° C./20% RH storage, FIG. 3): prevent degradation seen in PS80 containing formulations

Cmpd 4 Solubility (% w/w) <mixing overnights (>24 hr) at ambient room temperature> ([4]; 0.1% Solutol HS 15, adjusted to pH 5.5, final pH 5.9 post-filtration): 0.07 % w/w
Cmpd 4 Solubility (% w/w) <mixing overnights (>24 hr) at ambient room temperature> ([4]; 0.1% Solutol HS 15, adjusted to pH 6.5, final pH 6.7 post-filtration): 0.02 % w/w
Cmpd 4 Solubility (% w/w) <mixing overnights (>24 hr) at ambient room temperature> ([4]; 0.5% Solutol HS 15, adjusted to pH 5.5, final pH 6.1 post-filtration): 0.11 % w/w
Cmpd 4 Solubility (% w/w) <mixing overnights (>24 hr) at ambient room temperature> ([4]; 0.5% Solutol HS 15, adjusted to pH 6.5, final pH 6.8 post-filtration): 0.06 % w/w
Cmpd 4 Solubility (% w/w) <mixing overnights (>24 hr) at ambient room temperature> ([4]; 1.0% Solutol HS 15, adjusted to pH 5.5, final pH 6.1 post-filtration): 0.16 % w/w
Cmpd 4 Solubility (% w/w) <mixing overnights (>24 hr) at ambient room temperature> ([4]; 1.0% Solutol HS 15, adjusted to pH 6.5, final pH 6.8 post-filtration): 0.10 % w/w
SMILES: Cc1c(COC(=O)C(C)(C)C)cccc1[C@H](C)c1c[nH]cn1 [Cmpd 4, 3-[(1S)-1-(1H-imidazol-4-yl)ethyl]-2-methylbenzyl pivalate]
